Numbered stars: 1 amine (or outer) side, 2 acyl side, 3 side chain; on linkers, the order of the positions; unused ones are H or OH. Bridge positions count the residues as written; N and C are the ends. Square brackets hold non-standard residues; d marks the D form. Peptide text beside a SMILES is read from it. I, II: the chains in the order shown. Actinocin(9to1) = Cc1c2oc3c(C)ccc(C(=O)[*:1])c3nc-2c(C(=O)[*:2])c(N)c1=O; NMeV = CN[C@H](C(=O)O)C(C)C; Sar = CNCC(=O)O
Legend:
[1] = tested on: Pestalotiopsis sydowiana MAFF No. 305755; experiment: Antibiotic sensitivity test for pathogenic filamentous fungi (mycelial mat diameter); type: cell-based; details: for Sensitivity of Pestalotiopsis sydowiana against antibiotic: 0.1, 1, 10 μg/ml in potato sucrose agar medium, 3 days (FIGS. 12, 13)
Method: (§1) Pathogenic filamentous fungi were tested for their sensitivity against antibiotics belonging to actinomycin and polyen anti-fungal antibiotics shown to be produced by R-5 strain. First, actinomycin D or amphotericin B (polyen anti-fungal antibiotic) was dissolved to concentrations of 0.1, 1, and 10 μg/mil in potato sucrose agar medium cooled to about 45° C., and solidified. Mycelial disks with a diameter of 6 mm, which had been stamped out from mycelial mats of Phytophthora cinnamomi MAFF No. 305565 or Pestalotiopsis sydowiana MAFF No. 305755 pre-cultured for 7 days on potato sucrose agar medium, were inoculated onto the potato sucrose agar medium solidified as described above. Each diameter of the mycelial mats was measured with time for 3 days.

[2] = tested on: Phytophthora cinnamomi MAFF No. 305565; experiment: as above; type: cell-based; details: for Sensitivity of Phytophthora cinnamomi against antibiotic: 0.1, 1, 10 μg/ml in potato sucrose agar medium, 3 days (FIGS. 10, 11)
Method: as §1

Row | Structure (SMILES) | Growth of the mycelia of Pestalotiopsis sydowiana ([1]; 10 μg/ml) | Sensitivity of Pestalotiopsis sydowiana against antibiotic [1] | Growth of the mycelial mat of Phytophthora cinnamomi ([2]; 10 μg/ml) | Sensitivity of Phytophthora cinnamomi against antibiotic [2] | Growth of the mycelia of Pestalotiopsis sydowiana ([1]; 0.1 μg/ml)
1 | Cc1c2oc3c(C)ccc(C(=O)N[C@@H]4C(=O)N[C@H](C(C)C)C(=O)N5CCC[C@H]5C(=O)N(C)CC(=O)N(C)[C@@H](C(C)C)C(=O)O[C@@H]4C)c3nc-2c(C(=O)N[C@@H]2C(=O)N[C@H](C(C)C)C(=O)N3CCC[C@H]3C(=O)N(C)CC(=O)N(C)[C@@H](C(C)C)C(=O)O[C@@H]2C)c(N)c1=O [actinomycin D] (I: T[dV]P[Sar][NMeV] / II: T[dV]P[Sar][NMeV]; ester I:1-I:C, II:1-II:C; linker I:N-II:N via Actinocin(9to1)) | significantly suppressed the growth | weak sensitivity | completely stopped the growth | showed sensitivity | –
2 | C[C@@H]1[C@H](O)[C@@H](C)/C=C/C=C/C=C/C=C/C=C/C=C/C=C/[C@H](O[C@@H]2O[C@H](C)[C@@H](O)[C@H](N)[C@@H]2O)C[C@@H]2O[C@](O)(C[C@@H](O)C[C@@H](O)[C@H](O)CC[C@@H](O)C[C@@H](O)CC(=O)O[C@H]1C)C[C@H](O)[C@H]2C(=O)O [amphotericin B] | – | high sensitivity | – | almost no sensitivity | completely suppressed the growth of the mycelia

From patent publication US6544511B2, “Plant disease control agent” (Akatsuka Orchid Co., Ltd., priority 2000, dated 2003)
